Measured values published in US8088806B2 (Achillion Pharmaceuticals, Inc., priority 2005, dated 2012).

tested on: HCV replicon; experiment: Replicon based assay of HCV replication inhibition (NPT ELISA); assay type: cell-based, Hepatitis C virus; conditions: Hepatitis C virus, replicon based assay of HCV replication inhibition; Table IV; read-out: Activity
Outline: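 NPT (neomycin phosphotransferase) content, proportional to replicon replication, quantified by capture ELISA on day four. Before that, replicon-bearing Huh-7 cells in G418-free screening medium were exposed three days at 37° C to compound, typically six doses from 10 to 0.03 micromolar, with equal DMSO across wells.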

Question: With `O=c1[nH]c2ccc(-c3csc(Nc4ccc(OCC5CCCCC5)c(F)c4)n3)cc2c(=O)o1` [compound 723, 6-(2-(4-(cyclohexylmethoxy)-3-fluorophenylamino)thiazol-4-yl)-1H-benzo[d][1,3]oxazine-2,4-dione] as the molecule, how does the EC50 read?
Answer: The EC50 was 1 to 10 µM.

Question: For `OCCc1ccc(-c2csc(Nc3ccc(OCC4CCCCC4)c(F)c3)n2)cc1` [compound 724, 2-(4-(2-(4-(cyclohexylmethoxy)-3-fluorophenylamino)thiazol-4-yl)phenyl)ethanol], which EC50 is on record?
Answer: Its EC50 is 1 to 10 µM.

Question: Which EC50 does the source give for `NC(=O)c1sccc1-c1csc(Nc2ccc(OCC3CCCCC3)c(F)c2)n1` [compound 725, 3-(2-(4-(cyclohexylmethoxy)-3-fluorophenylamino)thiazol-4-yl)thiophene-2-carboxamide] here?
Answer: Its EC50 is less than 1 µM.

Question: How did the EC50 turn out when `Fc1cc(Nc2nc(-c3ccc(-c4csnn4)cc3)cs2)ccc1OCC1CCCCC1` [compound 726, 4-(4-(1,2,3-thiadiazol-4-yl)phenyl)-N-(4-(cyclohexylmethoxy)-3-fluorophenyl)thiazol-2-amine] was run?
Answer: The EC50 was 1 to 10 µM.

Question: With `O=C1CSc2cc(-c3csc(Nc4ccc(OCC5CCCCC5)c(F)c4)n3)ccc2N1` [compound 727, 7-(2-(4-(cyclohexylmethoxy)-3-fluorophenylamino)thiazol-4-yl)-2H-benzo[b][1,4]thiazin-3(4H)-one] as the molecule, how does the EC50 read?
Answer: The EC50 was 1 to 10 µM.

Question: For `N#Cc1cncc(-c2csc(Nc3ccc(OCC4CCCCC4)c(F)c3)n2)c1` [compound 728, 5-(2-(4-(cyclohexylmethoxy)-3-fluorophenylamino)thiazol-4-yl)pyridine-3-carbonitrile], which EC50 is on record?
Answer: Its EC50 is less than 1 µM.

Question: `N#Cc1sccc1-c1csc(Nc2ccc(OCC3CCCCC3)c(F)c2)n1` [compound 729, 3-(2-(4-(cyclohexylmethoxy)-3-fluorophenylamino)thiazol-4-yl)thiophene-2-carbonitrile] was tested. Which EC50 did it give?
Answer: Its EC50 is less than 1 µM.

Question: Which EC50 does the source give for `CCCCCCCCOc1ccc(Nc2nc(-c3cccc(C(=O)OCC)n3)cs2)cc1C(F)(F)F` [compound 730, ethyl 6-(2-(3-(trifluoromethyl)-4-(octyloxy)phenylamino)thiazol-4-yl)pyridine-2-carboxylate] here?
Answer: The EC50 was less than 1 µM.

Question: Which EC50 does the source give for `CCCCCCCCOc1ccc(Nc2nc(-c3nc(C(=O)OCC)cs3)cs2)cc1C(F)(F)F` [compound 731, ethyl 2-(2-(3-(trifluoromethyl)-4-(octyloxy)phenylamino)thiazol-4-yl)thiazole-4-carboxylate] here?
Answer: Its EC50 is less than 1 µM.

Question: `CCCCCCCCOc1ccc(Nc2nc(-c3ncc(C(=O)OCC)s3)cs2)cc1C(F)(F)F` [compound 732, ethyl 2-(2-(3-(trifluoromethyl)-4-(octyloxy)phenylamino)thiazol-4-yl)thiazole-5-carboxylate] was tested. Which EC50 did it give?
Answer: The EC50 was less than 1 µM.

Question: For `CCCCCCCCOc1ccc(Nc2nc(-c3ccc(O)nc3)cs2)cc1C(F)(F)F` [compound 733, 5-(2-(3-(trifluoromethyl)-4-(octyloxy)phenylamino)thiazol-4-yl)pyridin-2-ol], which EC50 is on record?
Answer: Its EC50 is less than 1 µM.

Question: With `CCCCCCCCOc1ccc(Nc2nc(-c3ccc(OC)nc3)cs2)cc1C(F)(F)F` [compound 734, N-(3-(trifluoromethyl)-4-(octyloxy)phenyl)-4-(6-methoxypyridin-3-yl)thiazol-2-amine] as the molecule, how does the EC50 read?
Answer: The EC50 was less than 1 µM.

Question: Which EC50 does the source give for `CN(C)c1ccc(-c2csc(Nc3ccc(OC4CCCC4)c(C(F)(F)F)c3)n2)cn1` [compound 735, 5-(2-(4-(cyclopentyloxy)-3-(trifluoromethyl)phenylamino)thiazol-4-yl)-N,N-dimethylpyridin-2-amine] here?
Answer: Its EC50 is 1 to 10 µM.

Question: `c1ccc(-c2nc3cc(Nc4nc(-c5cccnc5)cs4)ccc3o2)cc1` [compound 736, 2-phenyl-N-(4-(pyridin-3-yl)thiazol-2-yl)benzo[d]oxazol-5-amine] was tested. Which EC50 did it give?
Answer: The EC50 was less than 1 µM.

Question: `c1cncc(-c2csc(Nc3ccc4c(c3)OCCO4)n2)c1` [compound 737, N-(2,3-dihydrobenzo[b][1,4]dioxin-6-yl)-4-(pyridin-3-yl)thiazol-2-amine] was tested. Which EC50 did it give?
Answer: The EC50 was greater than 10 µM.

Question: For `Clc1ccc(-c2cc(Nc3nc(-c4cccnc4)cs3)[nH]n2)cc1` [compound 738, 3-(4-chlorophenyl)-N-(4-(pyridin-3-yl)thiazol-2-yl)-1H-pyrazol-5-amine], which EC50 is on record?
Answer: The EC50 was greater than 10 µM.

Question: How did the EC50 turn out when `Brc1ccc(Nc2nc(-c3cccnc3)cs2)nc1` [compound 739, 5-bromo-N-(4-(pyridin-3-yl)thiazol-2-yl)pyridin-2-amine] was run?
Answer: The EC50 was greater than 10 µM.

Question: For `c1cncc(-c2csc(Nc3ccc4c(c3)OCO4)n2)c1` [compound 740, N-(benzo[d][1,3]dioxol-6-yl)-4-(pyridin-3-yl)thiazol-2-amine], which EC50 is on record?
Answer: Its EC50 is greater than 10 µM.

Question: How did the EC50 turn out when `COc1ccc(Nc2nc(-c3cccnc3)cs2)cc1OC1CCCC1` [compound 741, N-(3-(cyclopentyloxy)-4-methoxyphenyl)-4-(pyridin-3-yl)thiazol-2-amine] was run?
Answer: The EC50 was 1 to 10 µM.

Question: For `Clc1cc(Nc2nc(-c3cccnc3)cs2)ccc1N1CCOCC1` [compound 742, N-(3-chloro-4-morpholinophenyl)-4-(pyridin-3-yl)thiazol-2-amine], which EC50 is on record?
Answer: The EC50 was 1 to 10 µM.

Question: How did the EC50 turn out when `CN1Cc2c(Nc3nc(-c4cccnc4)cs3)cccc2C(c2ccccc2)C1` (stereo not shown) [compound 743, 1,2,3,4-tetrahydro-2-methyl-4-phenyl-N-(4-(pyridin-3-yl)thiazol-2-yl)isoquinolin-8-amine] was run?
Answer: The EC50 was greater than 10 µM.

Question: For `COC(=O)c1sc(-c2ccccc2)cc1Nc1nc(-c2cccnc2)cs1` [compound 744, methyl 3-(4-(pyridin-3-yl)thiazol-2-ylamino)-5-phenylthiophene-2-carboxylate], which EC50 is on record?
Answer: The EC50 was greater than 10 µM.

Question: `Cc1nc2cc(Nc3nc(-c4cccnc4)cs3)ccc2s1` [compound 745, 2-methy1-N-(4-(pyridin-3-yl)thiazol-2-yl)benzo[d]thiazol-5-amine] was tested. Which EC50 did it give?
Answer: The EC50 was greater than 10 µM.

Question: Which EC50 does the source give for `c1cncc(-c2csc(Nc3cc(-c4cccs4)n[nH]3)n2)c1` [compound 746, N-(4-(pyridin-3-yl)thiazol-2-yl)-3-(thiophen-2-yl)-1H-pyrazol-5-amine] here?
Answer: Its EC50 is greater than 10 µM.

Question: With `Cc1cccc2sc(Nc3nc(-c4cccnc4)cs3)nc12` [compound 747, 4-methyl-N-(4-(pyridin-3-yl)thiazol-2-yI)benzo[d]thiazol-2-amine] as the molecule, how does the EC50 read?
Answer: Its EC50 is greater than 10 µM.

Question: How did the EC50 turn out when `Cn1nc(-c2ccccc2)cc1Nc1nc(-c2cccnc2)cs1` [compound 748, 1-methyl-3-phenyl-N-(4-(pyridin-3-yl)thiazol-2-yl)-1H-pyrazol-5-amine] was run?
Answer: The EC50 was greater than 10 µM.

Question: `c1cc(Nc2nc(-c3cccnc3)cs2)cc(-c2cocn2)c1` [compound 749, N-(3-(oxazol-4-yl)phenyl)-4-(pyridin-3-yl)thiazol-2-amine] was tested. Which EC50 did it give?
Answer: The EC50 was greater than 10 µM.

Question: `CCn1c(C)nc2cc(Nc3nc(-c4cccnc4)cs3)ccc21` [compound 750, 1-ethyl-2-methyl-N-(4-(pyridin-3-yl)thiazol-2-yl)-1H-benzo[d]imidazol-5-amine] was tested. Which EC50 did it give?
Answer: The EC50 was greater than 10 µM.

Question: `c1ccc(Oc2ccc(Nc3nc(-c4cccnc4)cs3)cn2)cc1` [compound 752, 6-phenoxy-N-(4-(pyridin-3-yl)thiazol-2-yl)pyridin-3-amine] was tested. Which EC50 did it give?
Answer: Its EC50 is 1 to 10 µM.

Question: `c1cncc(-c2csc(Nc3ccc4ncsc4c3)n2)c1` [compound 753, N-(4-(pyridin-3-yl)thiazol-2-yl)benzo[d]thiazol-6-amine] was tested. Which EC50 did it give?
Answer: Its EC50 is greater than 10 µM.

Question: With `c1ccc(-c2cc(Nc3nc(-c4cccnc4)cs3)[nH]n2)cc1` [compound 754, 3-phenyl-N-(4-(pyridin-3-yl)thiazol-2-yl)-1H-pyrazol-5-amine] as the molecule, how does the EC50 read?
Answer: The EC50 was greater than 10 µM.

Question: Which EC50 does the source give for `c1cncc(-c2csc(Nc3ccc4[nH]ncc4c3)n2)c1` [compound 755, N-(4-(pyridin-3-yl)thiazol-2-yl)-1H-indazol-5-amine] here?
Answer: Its EC50 is greater than 10 µM.

Question: Which EC50 does the source give for `c1ccc(-c2ccc(Nc3nc(-c4cccnc4)cs3)cn2)cc1` [compound 756, 6-phenyl-N-(4-(pyridin-3-yl)thiazol-2-yl)pyridin-3-amine] here?
Answer: Its EC50 is 1 to 10 µM.

Question: Which EC50 does the source give for `c1ccc(CCc2ccc(Nc3nc(-c4cccnc4)cs3)cc2)cc1` [compound 757, N-(4-phenethylphenyl)-4-(pyridin-3-yl)thiazol-2-amine] here?
Answer: The EC50 was less than 1 µM.

Question: With `CCN(CC)CCOC(=O)c1ccc(Nc2nc(-c3cccnc3)cs2)cc1` [compound 758, 2-(diethylamino)ethyl 4-(4-(pyridin-3-yl)thiazol-2-ylamino)benzoate] as the molecule, how does the EC50 read?
Answer: Its EC50 is greater than 10 µM.

Question: Which EC50 does the source give for `CCN(CC)C(=O)c1cccc(Nc2nc(-c3cccnc3)cs2)c1` [compound 759, 3-(4-(pyridin-3-yl)thiazol-2-ylamino)-N,N-diethylbenzamide] here?
Answer: Its EC50 is greater than 10 µM.

Question: How did the EC50 turn out when `O=C(c1ccccc1)c1cccc(Nc2nc(-c3cccnc3)cs2)c1` [compound 760, (3-(4-(pyridin-3-yl)thiazol-2-ylamino)phenyl)(phenyl) methanone] was run?
Answer: The EC50 was greater than 10 µM.

Question: With `c1cncc(-c2csc(Nc3ccc4nccnc4c3)n2)c1` [compound 761, N-(4-(pyridin-3-yl)thiazol-2-yl)quinoxalin-6-amine] as the molecule, how does the EC50 read?
Answer: Its EC50 is greater than 10 µM.

Question: How did the EC50 turn out when `[2H]c1ccc2nc(-c3csc(Nc4ccc(OCC5CCCCC5)c(C(F)(F)F)c4)n3)ccc2n1` [compound 762, N-(4-(cyclohexylmethoxy)-3-(trifluoromethyl)phenyl)-4-(2-deuterated-1,5-naphthyridin-6-yl)thiazol-2-amine] was run?
Answer: The EC50 was 1 to 10 µM.

Question: With `FC(F)(F)c1cc(Nc2nc(-c3cncnc3-c3ccccc3)cs2)ccc1OCC1CCCCC1` [compound 763, N-(4-(cyclohexylmethoxy)-3-(trifluoromethyl)phenyl)-4-(4-phenylpyrimidin-5-yl)thiazol-2-amine] as the molecule, how does the EC50 read?
Answer: Its EC50 is 1 to 10 µM.

Question: `N#Cc1ccc(-c2csc(Nc3ccc(OCC4CCCCC4)c(C(F)(F)F)c3)n2)o1` [compound 764, 5-(2-(4-(cyclohexylmethoxy)-3-(trifluoromethyl)phenylamino)thiazol-4-yl)furan-2-carbonitrile] was tested. Which EC50 did it give?
Answer: The EC50 was less than 1 µM.

Question: `OCc1cc2cc(-c3csc(Nc4ccc(OCC5CCCCC5)c(C(F)(F)F)c4)n3)ccc2o1` [compound 765, (5-(2-(4-(cyclohexylmethoxy)-3-(trifluoromethyl)phenylamino)thiazol-4-yl)benzofuran-2-yl)methanol] was tested. Which EC50 did it give?
Answer: Its EC50 is less than 1 µM.

Question: `FC(F)(F)c1ccc(-c2csc(Nc3ccc(OCC4CCCCC4)c(C(F)(F)F)c3)n2)nc1` [compound 766, N-(4-(cyclohexylmethoxy)-3-(trifluoromethyl)phenyl)-4-(5-(trifluoromethyl)pyridin-2-yl)thiazol-2-amine] was tested. Which EC50 did it give?
Answer: Its EC50 is less than 1 µM.
